Source: ChEMBL document CHEMBL1123796, “New antitumor agents containing the anthracene nucleus” (1987)

How the values were obtained:
Format in all cases: functional
[1] = In vitro inhibition of human UACC-66 ovarian tumor cell line growth.; conditions: read-out: ID50 (the source's name)
RPMI-8226 [2] = assay: In vitro inhibition of human 8226 myeloma tumor cell line growth.; conditions: read-out: ID50 (the source's name)
WiDr = assay: Tested in vitro for inhibitory activity of human tumor cell growth against WIDR colon tumor, by using clonogenic assays.; conditions: read-out: ID50 (the source's name)
[3] = Tested in vitro for inhibitory activity of human tumor cell growth against HEC 1A endometrial tumor, by using clonogenic assays.; conditions: read-out: ID50 (the source's name)
L1210 [4] = assay: Effect on protein synthesis was determined by incorporation of radioligand into L1210 murine leukemia at a concentration of 1 ug/mL. (*: >50% cell kill); conditions: Mus musculus
L1210 [5] = assay: Effect on protein synthesis was determined by incorporation of radioligand into L1210 murine leukemia at a concentration of 0.01 ug/mL; conditions: Mus musculus
L1210 [6] = assay: Effect on DNA synthesis was determined by incorporation of radioligand into L1210 murine leukemia at a concentration of 0.01 ug/mL; conditions: Mus musculus
L1210 [7] = assay: Effect on RNA synthesis was determined by incorporation of radioligand into L1210 murine leukemia at a concentration of 1 ug/mL. (*: >50% cell kill); conditions: Mus musculus
L1210 [8] = assay: Effect on protein synthesis was determined by incorporation of radioligand into L1210 murine leukemia at a concentration of 10 ug/mL (*: >1 log cell kill); conditions: Mus musculus
L1210 [9] = assay: Effect on DNA synthesis was determined by incorporation of radioligand into L1210 murine leukemia at a concentration of 10 ug/mL (*: >1 log cell kill); conditions: Mus musculus
RPMI-8226 [10] = assay: Effect on RNA synthesis was determined by incorporation of radioligand into 8226 human myeloma cells at a concentration of 0.1 ug/mL
RPMI-8226 [11] = assay: Effect on DNA synthesis was determined by incorporation of radioligand into 8226 human myeloma cells at a concentration of 1 ug/mL. (*: >50% cell kill)
RPMI-8226 [12] = assay: Effect on protein synthesis was determined by incorporation of radioligand into 8226 human myeloma cells at a concentration of 1 ug/mL. (*: >50% cell kill)
RPMI-8226 [13] = assay: Effect on DNA synthesis was determined by incorporation of radioligand into 8226 human myeloma cells at a concentration of 0.1 ug/mL
L1210 [14] = assay: Effect on DNA synthesis was determined by incorporation of radioligand into L1210 murine leukemia at a concentration of 1 ug/mL. (*: >50% cell kill); conditions: Mus musculus
L1210 [15] = assay: Effect on DNA synthesis was determined by incorporation of radioligand into L1210 murine leukemia at a concentration of 0.1 ug/mL; conditions: Mus musculus
L1210 [16] = assay: Effect on protein synthesis was determined by incorporation of radioligand into L1210 murine leukemia at a concentration of 0.1 ug/mL; conditions: Mus musculus
RPMI-8226 [17] = assay: Effect on protein synthesis was determined by incorporation of radioligand into 8226 human myeloma cells at a concentration of 0.1 ug/mL
L1210 [18] = assay: Effect on RNA synthesis was determined by incorporation of radioligand into L1210 murine leukemia at a concentration of 10 ug/mL (*: >1 log cell kill); conditions: Mus musculus
RPMI-8226 [19] = assay: Effect on RNA synthesis was determined by incorporation of radioligand into 8226 human myeloma cells at a concentration of 0.01 ug/mL
L1210 [20] = assay: Effect on RNA synthesis was determined by incorporation of radioligand into L1210 murine leukemia at a concentration of 0.1 ug/mL; conditions: Mus musculus
RPMI-8226 [21] = assay: Effect on DNA synthesis was determined by incorporation of radioligand into 8226 human myeloma cells at a concentration of 0.01 ug/mL
RPMI-8226 [22] = assay: Effect on protein synthesis was determined by incorporation of radioligand into 8226 human myeloma cells at a concentration of 0.01 ug/mL
RPMI-8226 [23] = assay: Effect on DNA synthesis was determined by incorporation of radioligand into 8226 human myeloma cells at a concentration of 10 ug/mL (*: >1 log cell kill)
RPMI-8226 [24] = assay: Effect on protein synthesis was determined by incorporation of radioligand into 8226 human myeloma cells at a concentration of 10 ug/mL (*: >1 log cell kill)
RPMI-8226 [25] = assay: Effect on RNA synthesis was determined by incorporation of radioligand into 8226 human myeloma cells at a concentration of 10 ug/mL (*: >1 log cell kill)
L1210 [26] = assay: Effect on RNA synthesis was determined by incorporation of radioligand into L1210 murine leukemia at a concentration of 0.01 ug/mL; conditions: Mus musculus
RPMI-8226 [27] = assay: Effect on RNA synthesis was determined by incorporation of radioligand into 8226 human myeloma cells at a concentration of 1 ug/mL. (*: >50% cell kill)

**Q.** Which IC50 [1] does the source give for `CN(C)CCN(C)Cc1c2ccccc2c(CN(C)CCN(C)C)c2ccccc12` here?
**A.** 0.7 µM

**Q.** What about the IC50 (RPMI-8226 [2]) of the same compound?
**A.** 0.29 µM

**Q.** And the IC50 (WiDr)?
**A.** 140 nM

**Q.** Which IC50 [1] does the source give for `OCCNCc1c2ccccc2c(CNCCO)c2ccccc12` here?
**A.** 74.9 µM

**Q.** What about the IC50 (RPMI-8226 [2]) of the same compound?
**A.** 27.8 µM

**Q.** For `NCCNCc1c2ccccc2c(CNCCN)c2ccccc12`, which IC50 [1] is on record?
**A.** 4.14 µM

**Q.** What about the IC50 (RPMI-8226 [2]) of the same compound?
**A.** 692 µM

**Q.** And the IC50 (WiDr)?
**A.** 420 nM

**Q.** Which results are given for `CC(C)N(CCNCc1c2ccccc2c(CNCCN(C(C)C)C(C)C)c2ccccc12)C(C)C`?
**A.** IC50 (RPMI-8226 [2]): 7.63 µM; IC50 (WiDr): 15500 nM

**Q.** Which results are given for `C(=N\Nc1nccs1)/c1c2ccccc2c(/C=N/Nc2nccs2)c2ccccc12`?
**A.** IC50 [1]: 8.8 µM; IC50 (RPMI-8226 [2]): 6.26 µM; IC50 [3]: 200 µM; IC50 (WiDr): 5900 nM

**Q.** Which IC50 [1] does the source give for `OCCCNCc1c2ccccc2c(CNCCCO)c2ccccc12` here?
**A.** 18.2 µM

**Q.** For `CNCCN(C)Cc1c2ccccc2c(CN(C)CCNC)c2ccccc12`, which IC50 [1] is on record?
**A.** 3.42 µM

**Q.** What about the IC50 (RPMI-8226 [2]) of the same compound?
**A.** 3.51 µM

**Q.** And the IC50 (WiDr)?
**A.** 1930 nM

**Q.** With `C(=N\NC1=NCCN1)/c1c2ccccc2c(/C=N/NC2=NCCN2)c2ccccc12` [BISANTRENE] as the compound, how does the IC50 [1] read?
**A.** 2.4 µM

**Q.** What about the inhibition at 1 µg/mL (L1210 [4]) of the same compound?
**A.** 48.5%

**Q.** And the inhibition at 0.01 µg/mL (L1210 [5])?
**A.** 0%

**Q.** And the IC50 (RPMI-8226 [2])?
**A.** 0.23 µM

**Q.** And the IC50 [3]?
**A.** 0.38 µM

**Q.** What about the inhibition at 0.01 µg/mL (L1210 [6]) of the same compound?
**A.** 1.8%

**Q.** And the inhibition at 1 µg/mL (L1210 [7])?
**A.** 21.7%

**Q.** And the inhibition at 10 µg/mL (L1210 [8])?
**A.** 89%

**Q.** What about the inhibition at 10 µg/mL (L1210 [9]) of the same compound?
**A.** 66.8%

**Q.** What about the inhibition at 0.1 µg/mL (RPMI-8226 [10]) of the same compound?
**A.** 21%

**Q.** What about the inhibition at 1 µg/mL (RPMI-8226 [11]) of the same compound?
**A.** 79.9%

**Q.** What about the inhibition at 1 µg/mL (RPMI-8226 [12]) of the same compound?
**A.** 41.9%

**Q.** What about the inhibition at 0.1 µg/mL (RPMI-8226 [13]) of the same compound?
**A.** 33.3%

**Q.** What about the inhibition at 1 µg/mL (L1210 [14]) of the same compound?
**A.** 43.6%

**Q.** And the inhibition at 0.1 µg/mL (L1210 [15])?
**A.** 9.3%

**Q.** What about the inhibition at 0.1 µg/mL (L1210 [16]) of the same compound?
**A.** 5.6%

**Q.** What about the inhibition at 0.1 µg/mL (RPMI-8226 [17]) of the same compound?
**A.** 20.2%

**Q.** And the inhibition at 10 µg/mL (L1210 [18])?
**A.** 96.1%

**Q.** And the inhibition at 0.01 µg/mL (RPMI-8226 [19])?
**A.** 0%

**Q.** What about the inhibition at 0.1 µg/mL (L1210 [20]) of the same compound?
**A.** 24.1%

**Q.** And the inhibition at 0.01 µg/mL (RPMI-8226 [21])?
**A.** 0%

**Q.** And the inhibition at 0.01 µg/mL (RPMI-8226 [22])?
**A.** 0%

**Q.** What about the inhibition at 10 µg/mL (RPMI-8226 [23]) of the same compound?
**A.** 97.7%

**Q.** What about the inhibition at 10 µg/mL (RPMI-8226 [24]) of the same compound?
**A.** 63.5%

**Q.** And the inhibition at 10 µg/mL (RPMI-8226 [25])?
**A.** 92.9%

**Q.** What about the inhibition at 0.01 µg/mL (L1210 [26]) of the same compound?
**A.** 0%

**Q.** What about the inhibition at 1 µg/mL (RPMI-8226 [27]) of the same compound?
**A.** 91.6%

**Q.** And the IC50 (WiDr)?
**A.** 440 nM
